8 compounds from patent US20180185325A1, “12H-BENZO[b]XANTHEN-12-ONES, COMPOSITIONS CONTAINING, AND USES OF, SAME” (Thesan Pharmaceuticals, Inc., priority 2015, published 2018) can be followed below.

The structures appear in SMILES notation. Bounds are passed on as bounds.

One data set concerns HepG2 cells. The experiment in a line: MTT cytotoxicity assay in HepG2 cells. Type of data set: cell-based, human. As to conditions: human, 24 h. The procedure:
(§1) HepG2 cells are seeded at between 1×10^4 and 2.5×10^4 cells/well in a 96-well microtitre plate. […] The formation of resorufin is quantified by fluorometry with a fluorescence plate reader. Fluorescence is determined at λex 570 nm and λem 590 nm. […] The remaining (i.e. all cells present at the beginning of analysis, since only supernatant is taken to assay EROD) live cells are subsequently utilized for the MIT cytotoxicity assay. […] The medium is carefully removed, then MIT formazan is solubilized by adding 200 μl of DMSO and subsequently mixed on a plate shaker. The absorbance is measured spectrophotometrically at 550 nm and background absorbance at 690 nm is subtracted.

Another data set has as its system human sebocyte cells. The experiment in a line: MTT cytotoxicity assay in human cultured sebocytes. Type of data set: cell-based. The procedure: (§2) Cells are seeded at between 1×10^4 and 2.5×10^4 cells/well in a 96-well microtitre plate. […] The formation of resorufin is quantified by fluorometry with a fluorescence plate reader. Fluorescence is determined at λex 570 nm and […]. The amount of resorufin is calculated from a standard curve generated using 0 to 1 μM resorufin in water at 34 log dilutions. The remaining (i.e. all cells present at the beginning of analysis, since only supernatant is taken to assay EROD) live cells are subsequently utilized for the MIT cytotoxicity assay. MIT is made up in serum-free medium at 5 mg/ml. then added to the cells giving a final concentration of 10% (0.5 mg/ml MIT final) then incubated for 2 h. The medium is carefully removed, then MTT formazan is solubilized by adding 200 μl of DMSO and subsequently mixed on a plate shaker. The absorbance is measured spectrophotometrically at 550 nm and background absorbance at 690 nm is subtracted. A standard curve generated using MTT formazan (dissolved in DMSO) from 0-200 μM (0, 2, 5, 10, 20, 50, 100, 200 μM) is used to calculate the final experimental values which are then expressed as (μmol resorufin/mol MIT formazan) or as fold-induction compared to solvent.
(In general: Tetrazolium dyes change colour on reduction, which living cells bring about.)

Data set [1] deals with CYP1A1. Nature of the data set: EROD assay in HepG2 cells (cleavage of 7-ethoxyresorufin to resorufin). The data set is classed as cell-based, human. As to conditions: human, probe 7-ethoxyresorufin (8 μM). The method, then: as §1
The target in data set [2] is T1, Aryl Hydrocarbon Receptor (Homo sapiens, UniProt P35869).
T1 construct: endogenous in cells; host or cells: Hep G2 cells stably transduced with the lentivector plox-XRE TATA-Luc (reporter only)
T1 sequence (P35869 11-848): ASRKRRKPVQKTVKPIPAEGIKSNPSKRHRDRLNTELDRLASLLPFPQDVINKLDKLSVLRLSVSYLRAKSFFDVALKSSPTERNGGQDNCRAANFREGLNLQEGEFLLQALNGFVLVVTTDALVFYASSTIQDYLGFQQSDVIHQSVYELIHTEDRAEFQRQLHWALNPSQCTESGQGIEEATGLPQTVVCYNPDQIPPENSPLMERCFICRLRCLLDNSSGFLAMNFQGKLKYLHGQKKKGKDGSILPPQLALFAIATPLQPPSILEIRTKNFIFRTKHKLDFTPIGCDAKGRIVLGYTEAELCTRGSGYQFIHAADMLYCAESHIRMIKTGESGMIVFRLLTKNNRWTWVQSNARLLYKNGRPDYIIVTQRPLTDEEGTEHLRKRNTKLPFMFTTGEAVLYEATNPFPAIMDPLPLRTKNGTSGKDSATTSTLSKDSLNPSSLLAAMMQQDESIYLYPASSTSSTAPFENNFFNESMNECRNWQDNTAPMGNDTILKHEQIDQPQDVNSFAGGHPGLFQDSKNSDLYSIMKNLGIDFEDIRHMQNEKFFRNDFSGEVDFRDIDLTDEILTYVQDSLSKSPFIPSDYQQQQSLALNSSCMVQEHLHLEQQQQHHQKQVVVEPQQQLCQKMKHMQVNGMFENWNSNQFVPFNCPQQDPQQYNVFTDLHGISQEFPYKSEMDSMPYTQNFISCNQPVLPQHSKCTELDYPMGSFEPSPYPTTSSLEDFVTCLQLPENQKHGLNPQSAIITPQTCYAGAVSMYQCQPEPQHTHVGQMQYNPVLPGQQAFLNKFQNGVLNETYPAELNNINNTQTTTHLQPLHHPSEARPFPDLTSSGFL
Nature of the data set: AhR activation luciferase reporter in NHK-plox-XRE TATA-Luc cells. Type of data set: cell-based. Particulars: 24 h, 1-10 uM. The procedure: AhR activation is also measured in human skin cells such as normal human keratinocytes (NHK cells) or A431 epidermoid cells stably transfected with the lentivector plox-XRE TATA-Luc. The NHK cells are cultured in a specific keratinocyte SFM medium (Gibco)+penicillin+streptomycin. At D0, the NHK cells are seeded into 6-well plates in a proportion of approximately […]. After 24 h, the medium is replaced with fresh medium and the cells are transduced with the lentivector plox-XRE TATA-Luc. After 48 h, the cells are subcultured and maintained in culture, and tested for their reactivity to 3-phenyl-1H-benzo[f]chromen-1-one. The tests are carried out using the luciferase reporter assay system kit from Promega. At D0, the cells are seeded at a density of approximately 60% confluence, and then treated, at D1, with the test substance diluted to various concentrations in the appropriate culture medium. At D2, the cells are lysed in CLB buffer, and the lysate is clarified by centrifugation for 5 min at 10 000 g. The luciferase activity is measured in 20 microliters of lysate as recommended by the supplier, using the luminoskan luminometer (Thermo). […] Data is processed and EC50's can be calculated from standard data monitoring software.
In general terms: A reporter such as luciferase makes a cellular process visible.

The target of data set [3] is T1, Aryl Hydrocarbon Receptor. Nature of the data set: AhR activation luciferase reporter in Hep G2-plox-XRE TATA-Luc cells. Type of data set: cell-based. As to conditions: 24 h, 1-10 uM. The procedure: AhR activation is measured in HEP G2 cells (hepatocytes, Hep G2 is a human liver carcinoma cell line) stably transfected with the lentivector plox-XRE TATA-Luc. The Hep G2 cells are cultured in a growing media consisting of DMEM (Gibco)+10% fetal bovine serum+penicillin+streptomycin. At D0, the Hep G2 cells are seeded into 12-well plates in proportions of approximately 30,000 cells/cm^2. After 24 h, the medium is replaced with fresh medium and the cells are transduced with the lentivector plox-XRE TATA-Luc. After 48 h, the cells are subcultured and maintained in culture, and tested for their reactivity to 3-phenyl-1H-benzo[f]chromen-1-one. The tests are carried out using the luciferase reporter assay system kit from Promega. At D0, the cells are seeded at a density of approximately 60% confluence, and then treated, at D1, with the test substance diluted to various concentrations in the appropriate culture medium. At […], the cells are lysed in CLB buffer, and the lysate is clarified by centrifugation for 5 min at 10 000 g. The luciferase activity is measured in 20 microliters of lysate as recommended by the supplier, using the luminoskan luminometer (Thermo). […] Data is processed and EC50's can be calculated from standard data monitoring software.

Data set [4] concerns CYP1A1. Nature of the data set: EROD assay in human cultured sebocytes. Type of data set: cell-based. Particulars: cultured sebocytes, probe 7-ethoxyresorufin (8 μM). The procedure:
as §2

Another data set relates to sebaceous glands. The experiment in a line: Mouse ear assay for sebaceous gland prevalence. Type of data set: in vivo, C57BL/6J mice. Particulars: topical 1% solution in DMSO:acetone 50:50, twice a day for five days, vs controls. The procedure:
C57BL/6J male mice (Harlan Models), approximately 4-5 weeks of age, body weight 20-30 g, were acclimatized (individually housed) for 5 days in a 12 hour light/dark cycle standard laboratory environment (T=20-24° C., relative humidity 30-70%, 15-20 air changes per hour) with access to water and standard rodent chow (Harlan Tekiad 2014C supplied by Harlan Laboratories Models, S.L.) ad libitum. Animals were anesthetized with isoflurane and the test article (80 ul, 1% solution in DMSO:acetone 50:50) was administered to the outer surface of each of the ears of between 2 and 5 mice twice a day for five days by dermal application using a micropipette tip (a little volume of the solution was also applied on the inner side of the ears). All animals were monitored daily for reaction to the treatment, signs of illness, and behavioral changes. Body weights were recorded before the first administration and immediately prior to sacrifice. Approximately 12 to 16 hours after the final administration on day 5 the mice were sacrificed by i.p. injection of sodium pentobarbital (200 mg/kg) and the ears were collected. Each ear was sectioned into two halves. For each animal, one-half of one ear was fixed, in neutral phosphate-buffered 4% formaldehyde solution (4% formalin). This trimmed section of the ear was then processed, embedded in paraffin wax and stored at room temperature. […]

A further data set relates to CYP1A1 mRNA. Nature of the data set: CYP1A1 mRNA assay in HepG2 cells (RT-PCR). Type of data set: cell-based, human. Particulars: 10 uM. The procedure: HepG2 cells (American Type Culture Collection (ATCC), Manassas, Va.) were cultured using Eagle's minimal essential medium (ATCC), supplemented with 10% fetal calf serum (Invitrogen Life Technologies). […] Cells were plated at a seeding density of 3.8×10^5 cells per well on 6-well plates (Corning Costar, NY, U.S.A.). Cells were allowed to attach for 24 h in a 37° C. humidified incubator with a 5% CO2 atmosphere. Media was replaced with that containing test agents or vehicle (0.1% dimethylsulphoxide) and cells incubated for a further 24 h. Following the 24 h incubation with test agents, media was removed and RNA prepared using the Purelink RNA mini kit (ThermoFischer, Carlsbad, Calif.). Nucleic acid concentration was determined using a Nanodrop™ spectrophotometer (ThermoScientific) by measuring the OD at 260 nm and RNA purity was evaluated using the OD 260/280 nm ratio. 1 μg RNA was reverse transcribed using SuperScript®VILO™ (ThermoFischer) with cDNA synthesis performed using the following parameters: 10 min at 25° C., 2 h at 42° C., 5 min at 85° C. (deactivation) followed by a completion temperature of 4° C. […] Each sample (1 μl) was pipetted into a 96-well optical reaction plate (Applied Biosystems, Carlsbad, Calif.). […] Results were analyzed by calculating the fold change of CYP1A1 mRNA levels normalized to 18S rRNA (ΔΔCt) in compound treated cells or tissues compared to vehicle levels.

One may read the EC50 as the concentration needed to bring the measured effect to its halfway point. As to `COc1ccc2c(=O)c3c(ccc4ccccc43)oc2c1` [Compound M], the Toxicity threshold was greater than 30 µM in the data set with HepG2 cells and 50 µM in the data set on human sebocyte cells. The same compound had an EC50 at 24 h with CYP1A1 [1] of 3000 nM.

For `O=c1cc(-c2ccccc2)oc2ccc3ccccc3c12` [3-phenyl-1H-benzo[f]chromen-1-one, 3-Phenyl-1H-benzo[f]chromen-1-one], the “induction of luciferase activity” value in data set [2] was “a significant induction”. For the same compound, in data set [3], the “induction of the luciferase activity” value is on record as “a significant induction”.

Take `O=c1c2cccc(O)c2oc2ccc3ccccc3c12` [Compound P]: the Toxicity threshold in the data set on HepG2 cells and with human sebocyte cells was greater than 100 µM each time. The results for the concentration for a half-maximal effect (EC50) at 24 h in the data set on CYP1A1 [1] and in the data set with CYP1A1 [4] were 2000 nM and 200 nM, respectively.

In the case of `COc1ccc2oc3ccc4ccccc4c3c(=O)c2c1` [Compound K], the Toxicity threshold is greater than 100 µM in the data set on HepG2 cells and greater than 50 µM with human sebocyte cells. The half-maximal effective concentration (EC50) at 24 h with CYP1A1 [1] and with CYP1A1 [4] was 500 nM in each case.

As for `O=c1c2ccccc2oc2ccc3ccccc3c12` [Compound C], the Toxicity threshold with HepG2 cells and in the data set with human sebocyte cells was greater than 30 µM in each case. For the same compound, the “number of differentiated sebocytes” value with sebaceous glands is “a reduction”. Besides, in the data set on sebaceous glands, the “number of sebaceous glands” value is reported as “a clear reduction”. Also, the EC50 at 24 h with CYP1A1 [1] is 2500 nM; with CYP1A1 [4] it was 200 nM. For the same compound, the “induction of CYP1A1 mRNA (in words)” value with CYP1A1 mRNA is recorded as “potent inducer”.

Consider `O=c1c2cc(O)ccc2oc2ccc3ccccc3c12` [Compound L], for which the Toxicity threshold in the data set on HepG2 cells was greater than 100 µM; in the data set on human sebocyte cells, greater than 50 µM. Further, the EC50 at 24 h in the data set with CYP1A1 [1] turned out to be 600 nM; with CYP1A1 [4] it was 500 nM.

As to `O=c1c2ccc(O)cc2oc2ccc3ccccc3c12` [Compound N], the Toxicity threshold was greater than 30 µM in the data set with HepG2 cells and greater than 50 µM in the data set with human sebocyte cells. The response in the data set with CYP1A1 [1] was half-maximal at 1500 nM (EC50 at 24 h).

As for `COc1cccc2c(=O)c3c(ccc4ccccc43)oc12` [Compound O], the Toxicity threshold with HepG2 cells and in the data set with human sebocyte cells was greater than 100 µM each time.
